Results reported in US9969679B2, “Anti-proliferative compounds and uses thereof” (Dana-Farber Cancer Institute, Inc., priority 2012, dated 2018).

Assays:
HER2 = assay: Immunoblot of whole cell lysates for HER2; type: cell-based, human; conditions: for HER2 expression, dose-dependent: 24 hr
Method: (§1) MCF7 cells were obtained and cultured (in the presence of compound III-B for 48 hr) in a similar manner as in Example 6. The cultured MCF7 cells were harvested, washed, and lysed using a lysis buffer (50 mM Tris-HCl (pH 7.4), 150 mM NaCl, 1% NP-40, 5 mM EDTA, 5 mM NaF, 1 mM Na3VO4, 1 mM PMSF, 5 μg/ml leupeptine, and 5 μg/ml aprotinin). […] The antibodies used were polyclonal anti-acetylated lysine (Ac—K; Cell Signaling Technology, Danvers, Mass.) and antibodies directed against EGFR, HER2, ER, and acetylated-α-tubulin (Ac-α-tubulin). […] In contrast, the expression of Ac—K in MCF7 cells was not affected by compound III-B (FIG. 12B).
(§2) MCF7 and T47D cells were obtained and cultured (in the presence of compound III-D (0, 0.5, 1, or 2 μM), for 24 hr), using methods similar to the ones described in Example 6. The whole cell lysates were immunoblotted with antibodies against EGFR, HER2, ER, and α-tubulin using methods similar to the ones described in Example 12. […] In contrast, the expression of α-tubulin in MCF7 or T47D cells was not affected by compound III-D (FIG. 13B).
(§3) MCF7 cells were obtained and cultured (in the presence of 2 μM of compound III-D, for 0, 12, 24, or 48 hr) using methods similar to the ones described in Example 6. The whole cell lysates were immunoblotted with antibodies against EGFR, HER2, ER, and α-tubulin using methods similar to the ones described in Example 12. […] In contrast, the expression of α-tubulin in MCF7 cells was not affected by compound III-D.

ER = assay: Immunoblot of whole cell lysates for ER; type: cell-based, human; conditions: for ER expression, dose-dependent: 24 hr
Method: as §1, §2, §3

EGFR = assay: Immunoblot of whole cell lysates for EGFR; type: cell-based, human; conditions: for EGFR expression, dose-dependent: 24 hr
Method: as §1, §2, §3

acetylated lysine (Ac—K) = assay: Immunoblot for acetylated lysine (histone acetylation); type: cell-based, human; conditions: MCF7 cells, 48 hr
Method: as §1

[1] = system: MCF7 human breast cancer cell lines; assay: MCF7 cell growth, MTT dye absorbance; type: cell-based; conditions: for MCF7 cell growth: 72 hr
Method: (§4) MCF7 human breast cancer cell lines were obtained from the American Type Culture Collection (Manassas, Va.). The cells were cultured in DMEM (Mediatech Inc., Manassas, Va.) or RPMI1640 (Mediatech Inc., Manassas, Va.) supplemented with FBS (10%), penicillin, streptomycin, and glutamine (Invitrogen, Auckland, New Zealand). […] The MCF7 cells were harvested using 0.05% trypsin-EDTA (Invitrogen) and distributed into 96-well plates (10,000-20,000 cells/well) 24 hr prior to the treatment. All experiments were performed three times in quadruplicate.

[2] = system: LnCaP human prostate cancer cells; assay: LnCaP cell growth, MTT dye absorbance; type: cell-based; conditions: 72 hr
Method: [The procedure below names another cell line; the source lists this cell line under the same test.] as §4

[3] = system: T47D human breast cancer cells; assay: T47D cell growth, MTT dye absorbance; type: cell-based; conditions: for T47D cell growth: 72 hr
Method: as §4
T47D human breast cancer cells were obtained, cultured (in the presence of compounds III-A, III-B, III-C, or III-E), and assayed in a similar manner as in Example 6.

pY694 STAT5 = assay: Intracellular flow cytometry of STAT5 phosphorylation in MDSCs; type: cell-based, human; conditions: 1 μM overnight, MM-PBMC, PHA 2 ng/ml 10 min
Method: (§5) STAT-mediated signaling plays an important role in MDSC activation and function.
(§6) MM-PBMCs were cultured overnight with (1 μM) or without compound III-D. Cells were induced with phytohemagglutinin (PHA, 2 ng/ml) for 10 min. Intracellular expression of pY701 STAT1, pY705 STAT3, pY694 STAT5, STAT1, STAT3, and STAT5 in MDSCs (CD11b^+CD14^−HLA-DR^−/lowCD33^+CD15^+), was determined by flow cytometry analysis.

pY701 STAT1 = assay: Intracellular flow cytometry of STAT1 phosphorylation in MDSCs; type: cell-based, human; conditions: 1 μM overnight, MM-PBMC, PHA 2 ng/ml 10 min
Method: as §5, §6

MCF7 cells = assay: Bortezomib and III-D combination cytotoxicity in MCF7 cells, MTT, isobologram analysis; type: cell-based, human; conditions: 48 hr; for Combination indicia (CI): MCF7 cells
Method: as §4
MCF7 cells were obtained, cultured (in the presence of bortezomib (0, 10, 20, or 40 nM) and III-D (0, 0.3, 1, or 3 μM), for 48 hr), and assayed using methods similar to the ones described in Example 6. The statistical significance of the differences observed between the control cultures and the cultures treated with bortezomib and compound III-D was determined using the Wilcoxon signed-ranks test. The minimal level of significance was p<0.05. The interaction between compound III-D and bortezomib was analyzed by isobologram analysis using the CalcuSyn software program (Biosoft, Ferguson, Mo.) to determine whether the combination was additive or synergistic. A combination index (CI)<1.0 indicates a synergistic cell growth inhibitory effect.

α-tubulin = assay: Immunoblot of whole cell lysates for α-tubulin; type: cell-based, human
Method: as §1, §2, §3

[4] = system: CD11b+CD14−HLA-DR−/lowCD33+CD15+ MDSCs in MM-PBMC; assay: MDSC number and maturation in MM-PBMC, flow cytometry; type: cell-based, human; conditions: 1 μM, cultured overnight; for number of CD11b+CD14−HLA-DR−/lowCD33+CD15+ MDSCs in MM-PBMC: vs untreated MM-PBMC
Method: In order to determine whether myeloid derived suppressor cells (MDSCs) are present in subjects with multiple myeloma (MM), fresh or cultured peripheral blood mononuclear cells (PBMCs) and bone marrow mononuclear cells (BMMCs) from human subjects with MM have been analyzed using standard cell-surface multicolor flow cytometry staining methods (see, e.g., Herzenberg et al., Clin. Chem. (2002) 48:1819-27; and Perez et al., Nat. Biotechnol. (2002) 20:155-62).
MM-PBMCs were cultured overnight with (1 μM) or without compound III-D. MDSCs (CD11b^+CD14^−HLA-DR^−/lowCD33^+CD15^+) were determined by flow cytometry analysis. Gates 110 and 130 indicate the MDSC population. Compound III-D induces maturation of MDSCs (CD11b^+CD14^−HLA-DR^−/lowCD33^+CD15^+) into CD14^+ and/or CD14^−[…] (FIG. 3G) in MM peripheral blood compared to untreated MM-PBMC (FIG. 3C). MM-PBMCs were cultured overnight with (1 μM) or without compound III-D. CD14 and/or HLA-DR expressing MDSCs (CD11b^+CD14^−HLA-DR^−/lowCD33^+CD15^+) were determined by flow cytometry analysis. Gates 100 and 120 indicate CD14^+ mature MDSC population. Gating strategy of MDSCs has been indicated as CD11b^+ cells (FIGS. 3A-3B and 3E-3F), CD11b^+CD14^−HLA-DR^−/lowCD14^− cells (FIGS. 3C and 3G) and MDSCs with a phenotype of CD11b^+/HLA-DR^−/lowCD14^−/CD33^+CD15^+ cells (FIGS. 3D and 3H).

[5] = system: T cells cocultured with MDSCs from peripheral blood of MM patients; assay: MDSC-mediated T cell suppression, 3H-Thymidin incorporation assay; type: cell-based, human; conditions: 1 μM, 5 days coculture, T:MDSCs 4:1, antiCD3/CD28 Abs and rhIL-2
Method: CD11b^+CD14^−HLA-DR^−/lowCD33^+ MDSCs and CD3T cells were isolated from peripheral blood of MM patients. The cells were stimulated with antiCD3/CD28 Abs and 2 ng/ml rhIL-2 and cocultured (ratio of T:MDSCs was 4:1) for 5 days in the absence or presence (1 μM) of compound III-D. The cell proliferation was measured by ^3H-Thymidin incorporation assay.

pY705 STAT3 = assay: Intracellular flow cytometry of STAT3 phosphorylation in MDSCs; type: cell-based, human; conditions: 1 μM overnight, MM-PBMC, PHA 2 ng/ml 10 min
Method: as §5, §6

[6] = MCF7 cells, 2 μM, 0, 12, 24, or 48 hr

For `CC(=O)N/N=C/c1ccc(N(c2ccccc2)c2ccccc2)cc1` [Compound III-B], the HER2 expression (HER2; MCF7 cells, 48 hr) was “down-regulates”, the ER expression (ER; MCF7 cells, 48 hr) was “down-regulates” and the EGFR expression (EGFR; MCF7 cells, 48 hr) was “down-regulates”. The “expression of Ac—K” value (acetylated lysine (Ac—K)) was “not affected”, the MCF7 cell growth [1] was “inhibit” and the LnCaP cell growth [2] was “inhibit”. For the same molecule, the T47D cell growth [3] was “inhibit”.
`O=C(N/N=C/c1ccc(N(c2ccccc2)c2ccccc2)cc1)c1ccccc1` [Compound III-C] was tested, and the MCF7 cell growth [1] was “inhibit”, the LnCaP cell growth [2] was “inhibit” and the T47D cell growth [3] was “inhibit”.
With `CN1CCC(C(=O)N/N=C/c2ccc(N(c3ccccc3)c3ccccc3)cc2)CC1` [Compound III-D] the “phosphorylation of STAT5 (pY694) in MDSCs” value (pY694 STAT5) was “significantly reduced”, the “HER2 expression, dose-dependent” value (HER2; MCF7 cells, 0, 0.5, 1, or 2 μM) was “down-regulates” and the “HER2 expression, time-dependent” value (HER2; [6]) was “down-regulates”. The “HER2 expression, dose-dependent” value (HER2; T47D cells, 0, 0.5, 1, or 2 μM) was “down-regulates”, the “ER expression, dose-dependent” value (ER; MCF7 cells, 0, 0.5, 1, or 2 μM) was “down-regulates” and the “ER expression, time-dependent” value (ER; [6]) was “down-regulates”. For the same molecule, the “ER expression, dose-dependent” value (ER; T47D cells, 0, 0.5, 1, or 2 μM) was “down-regulates”, the “phosphorylation of STAT1 (pY701) in MDSCs” value (pY701 STAT1) was “significantly reduced” and the “EGFR expression, dose-dependent” value (EGFR; MCF7 cells, 0, 0.5, 1, or 2 μM) was “down-regulates”. For the same molecule, the “EGFR expression, time-dependent” value (EGFR; [6]) was “down-regulates”, the “EGFR expression, dose-dependent” value (EGFR; T47D cells, 0, 0.5, 1, or 2 μM) was “down-regulates” and the “Combination indicia (CI)” value (MCF7 cells; III-D 0.3 μM + bortezomib 10 nM) was 1.58. For the same molecule, the “Combination indicia (CI)” value (MCF7 cells; III-D 0.3 μM + bortezomib 20 nM) was 1.29, the “Combination indicia (CI)” value (MCF7 cells; III-D 0.3 μM + bortezomib 40 nM) was 0.83 and the “Combination indicia (CI)” value (MCF7 cells; III-D 1 μM + bortezomib 10 nM) was 0.66. The “Combination indicia (CI)” value (MCF7 cells; III-D 1 μM + bortezomib 20 nM) was 0.53, the “Combination indicia (CI)” value (MCF7 cells; III-D 1 μM + bortezomib 40 nM) was 0.53 and the “Combination indicia (CI)” value (MCF7 cells; III-D 3 μM + bortezomib 10 nM) was 1.22. The “Combination indicia (CI)” value (MCF7 cells; III-D 3 μM + bortezomib 20 nM) was 1.03, the “Combination indicia (CI)” value (MCF7 cells; III-D 3 μM + bortezomib 40 nM) was 0.98 and the “enhancement of bortezomib-induced MCF7 cytotoxicity (interaction)” value (MCF7 cells; combination with bortezomib, at least at certain concentrations, CI<1 = synergistic) was “synergistically”. For the same molecule, the “expression of α-tubulin” value (α-tubulin; MCF7 cells, 0, 0.5, 1, or 2 μM, 24 hr) was “not affected”, the “expression of α-tubulin” value (α-tubulin; [6]) was “not affected” and the “expression of α-tubulin” value (α-tubulin; T47D cells, 0, 0.5, 1, or 2 μM, 24 hr) was “not affected”. For the same molecule, the MCF7 cell growth [1] was “inhibit”, the “potency in inhibiting MCF7 cells compared with tamoxifen” value ([1]; at least at 3-10 μM of compound and tamoxifen) was “more potent than tamoxifen” and the “maturation of MDSCs into CD14+ monocytes and/or CD14+HLA-DR+ antigen presenting cells” value ([4]; MM-PBMC) was “induced maturation”. The “number of CD11b+CD14−HLA-DR−/lowCD33+CD15+ MDSCs in MM-PBMC” value [4] was “significant decrease”, the “MDSC-mediated T cell suppression (T cell proliferation)” value [5] was “Reversed” and the “phosphorylation of STAT3 (pY705) in MDSCs” value (pY705 STAT3) was “significantly reduced”. The “potency in inhibiting T47D cells compared with tamoxifen” value [3] was “more potent than tamoxifen”.
In the case of `O/N=C/c1ccc(N(c2ccccc2)c2ccccc2)cc1` [Compound III-E], the MCF7 cell growth [1] was “inhibit”, the LnCaP cell growth [2] was “inhibit” and the T47D cell growth [3] was “inhibit”.
In the case of `O=C1CN(/N=C/c2ccc(N(c3ccccc3)c3ccccc3)cc2)C(=O)N1` [Compound III-F], the “phosphorylation of STAT5 (pY694) in MDSCs” value (pY694 STAT5) was “decreases”, the “phosphorylation of STAT1 (pY701) in MDSCs” value (pY701 STAT1) was “decreases” and the MCF7 cell growth [1] was “inhibit”. For the same molecule, the “number of CD11b+CD14−HLA-DR−/lowCD33+CD15+ MDSCs in MM-PBMC” value [4] was “decreased”, the “MDSC-mediated T cell suppression (T cell proliferation)” value [5] was “reverses” and the “phosphorylation of STAT3 (pY705) in MDSCs” value (pY705 STAT3) was “decreases”.
In the case of `O=C(NN=Cc1ccccc1)c1ccccc1` [Compound IV-B], the MCF7 cell growth [1] was “do not”.
In the case of `CC(=O)NN=Cc1ccccc1` [Compound IV-C], the MCF7 cell growth [1] was “do not”.
With `CC(=O)NN=Cc1ccc(N(C)C)cc1` [Compound IV-D] the MCF7 cell growth [1] was “does not”.
`O=Cc1ccc(N(c2ccccc2)c2ccccc2)cc1` [III-A] was tested, and the MCF7 cell growth [1] was “inhibit”, the LnCaP cell growth [2] was “inhibit” and the T47D cell growth [3] was “inhibit”.
With `CC(C)C[C@H](NC(=O)[C@H](Cc1ccccc1)NC(=O)c1cnccn1)B(O)O` [bortezomib, reference compound] the “response of MCF7 cells to bortezomib as single agent” value (MCF7 cells; bortezomib 0, 10, 20, or 40 nM) was “resistant”.
